In publication PMC3708846, “Cathelicidin-like Helminth Defence Molecules (HDMs): Absence of Cytotoxic, Anti-microbial and Anti-protozoan Activities Imply a Specific Adaptation to Immune Modulation” (PLoS Neglected Tropical Diseases, 2013):
≈ marks a conversion by molar mass, not a printed value. Where “and” joins values, the source holds several entries; their conditions need not be identical. Equal values may be shown once. Read-outs that look alike come from different tables or passages of the source. Ends that are not written are not given here.

How the values were obtained:
Escherichia coli = type: cell-based
Protocol: (§1) The minimal inhibitory concentration (MIC) of each peptide against various bacteria was determined using a standardized dilution method according to NCSLA guidelines [35]. Overnight colonies of E. coli, Pseudomonas aeruginosa, Salmonella typhimurium, Staphylococcus epidermis and Staphylococcus aureus, were suspended to a turbidity of 0.5 OD units and further diluted in Mueller-Hinton broth (MHB). […] Ten microliters of each concentration was added to each corresponding well of a 96-well polypropylene microtiter plate and 1×10^5 bacteria in the volume of 90 µL. The plate was incubated at 37°C for 16 h and then read at 600 nm with a Synergy H1 hybrid reader (Biotek).

Pseudomonas aeruginosa = type: cell-based
Protocol: as §1

Salmonella typhimurium = type: cell-based
Protocol: as §1

Staphylococcus epidermis = type: cell-based
Protocol: as §1

Staphylococcus aureus = type: cell-based
Protocol: as §1

human red blood cells = test: Haemolytic activity; type: cell-based; conditions: 0.5% human RBC, 1 h 37°C, OD 414 nm, 100% = 1% Triton X-100, triplicate
Protocol: The peptide's haemolytic activities were determined using human red blood cells (RBCs; Research Blood Components, LLC) in 96-well polypropylene microtiter plates. One hundred µl of 0.5% RBC suspension was added to an equal volume of a peptide (8–256 µg/ml). After 1 h at 37°C, plates were centrifuged at 1420×g for 5 min and the optical density of the supernatant was measured at 414 nm with a Synergy H1 hybrid reader (Biotek). Values for 0% and 100% lysis were obtained by adding PBS or Triton X-100 (1%; final concentration) to RBCs, respectively. All assays were performed in triplicate and the values of percent lysis were within a 1% standard deviation range.

[1] = Escherichia coli, Mueller Hinton broth, acetic acid/BSA, 1×10^5 bacteria, 37°C 16 h, read at 600 nm
[2] = Pseudomonas aeruginosa, Mueller Hinton broth, acetic acid/BSA, 1×10^5 bacteria, 37°C 16 h, read at 600 nm
[3] = Salmonella typhimurium, Mueller Hinton broth, acetic acid/BSA, 1×10^5 bacteria, 37°C 16 h, read at 600 nm
[4] = Staphylococcus epidermis, Mueller Hinton broth, acetic acid/BSA, 1×10^5 bacteria, 37°C 16 h, read at 600 nm
[5] = Staphylococcus aureus, Mueller Hinton broth, acetic acid/BSA, 1×10^5 bacteria, 37°C 16 h, read at 600 nm

Compound	MIC (Escherichia coli; [1]) [µg/mL]	MIC (Pseudomonas aeruginosa; [2]) [µg/mL]	MIC (Salmonella typhimurium; [3]) [µg/mL]	MIC (Staphylococcus epidermis; [4]) [µg/mL]	MIC (Staphylococcus aureus; [5]) [µg/mL]	Hemolytic activity (human red blood cells; peptide 16 µg/ml) [%]	Hemolytic activity (human red blood cells; peptide 32 µg/ml) [%]	Hemolytic activity (human red blood cells; peptide 64 µg/ml) [%]	Hemolytic activity (human red blood cells; peptide 128 µg/ml) [%]	Hemolytic activity (human red blood cells; peptide 256 µg/ml) [%]	Hemolytic activity (human red blood cells; peptide 8 µg/ml) [%]	Hemolytic activity	MIC (Escherichia coli; 16 h) [µg/mL]	MIC (Pseudomonas aeruginosa; 16 h) [µg/mL]	MIC (Salmonella typhimurium; murium, 16 h) [µg/mL]	MIC (Staphylococcus epidermis; 16 h) [µg/mL]	MIC (Staphylococcus aureus; 16 h) [µg/mL]
CC[C@H](C)[C@H](NC(=O)[C@H](CCCCN)NC(=O)[C@H](CCC(=O)O)NC(=O)[C@H](CCCCN)NC(=O)[C@H](CO)NC(=O)[C@H](CCCCN)NC(=O)[C@H](CCCNC(=N)N)NC(=O)[C@H](Cc1ccccc1)NC(=O)[C@H](Cc1ccccc1)NC(=O)[C@H](CC(=O)O)NC(=O)CNC(=O)[C@H](CC(C)C)NC(=O)[C@@H](N)CC(C)C)C(=O)NCC(=O)N[C@@H](CCCCN)C(=O)N[C@@H](CCC(=O)O)C(=O)N[C@@H](Cc1ccccc1)C(=O)N[C@@H](CCCCN)C(=O)N[C@@H](CCCNC(=N)N)C(=O)N[C@H](C(=O)N[C@H](C(=O)N[C@@H](CCC(N)=O)C(=O)N[C@@H](CCCNC(=N)N)C(=O)N[C@H](C(=O)N[C@@H](CCCCN)C(=O)N[C@@H](CC(=O)O)C(=O)N[C@@H](Cc1ccccc1)C(=O)N[C@@H](CC(C)C)C(=O)N[C@@H](CCCNC(=N)N)C(=O)N[C@@H](CC(N)=O)C(=O)N[C@@H](CC(C)C)C(=O)N[C@H](C(=O)N1CCC[C@H]1C(=O)N[C@@H](CCCNC(=N)N)C(=O)N[C@H](C(=O)N[C@@H](CCC(=O)O)C(=O)N[C@@H](CO)C(=O)O)[C@@H](C)O)C(C)C)[C@@H](C)CC)C(C)C)[C@@H](C)CC [LL-37, reference compound]	4 (≈ 0.89 µM)	8 (≈ 1.78 µM)	2 (≈ 0.445 µM)	>128	>128	1.7	4.1	10.4	20	20							
AMAYLAKDNLGEKITEVITILLNRLTDRLEKYAG [FhHDM-1p2]	>128	>128	>128	>128	>128	0	1.8	2.6	5.4	11.4	0						
GGLRSLGRKILRAWKKYGPIIVPIIRIG [BMAP-28]												50% and 70%	1	4	4	4	8
ISRLAGLLRKGGEKIGEKLKKIGQKIKNFFQKLVPQPE [CRAMP]													2	4	4	>128	>128
MDKYIRKEDLGMKMLDVAKILGRRIEKRMEYIAKK [Sm16-p73]	>128	>128	>128	>128	>128	0	0	0	0	0	0						
